Data on 24 compounds can be found in US9896418B2, “Aryl ethers and uses thereof” (Peloton Therapeutics, Inc., priority 2013, dated 2018).

As a reminder, the IC50 is the point on the concentration scale where inhibition reaches its midpoint. High values mean a need for much substance, low ones inhibition by little substance.

For this experiment, the system named is HIF-2α HIS TAG-PASB Domain. Put plainly: HIF-2α Scintillation Proximity Assay (SPA). It is filed as binding. How it is done: The percent inhibition was determined and IC50 values were calculated using the Dotmatics system based on the following equation: % inhibition=[(high control−sample)/(high control−low control)]×100.
For orientation: SPA uses beads or plates that emit light when radiolabelled molecules are held near them.

A value given as a limit tells only on which side of the number the result lay.

Consider `C=C1CC(O)c2c(S(C)(=O)=O)ccc(Oc3cc(F)cc(Cl)c3)c21` (stereo not drawn) [Compound 280, 4-(3-chloro-5-fluorophenoxy)-3-methylene-7-(methylsulfonyl)-2,3-dihydro-1H-inden-1-ol], for which the IC50 turned out to be 3.4 µM.

In the case of `N#CN=S(=O)(CF)c1ccc(Oc2cc(F)cc(C#N)c2)c2c1[C@H](O)CC2` (stereo partly drawn) [Compound 282, N—(((R)-7-(3-cyano-5-fluorophenoxy)-3-hydroxy-2,3-dihydro-1H-inden-4-yl)(fluoromethyl)(oxo)-λ^6-sulfanylidene)cyanamide], the IC50 was determined as 7.2 µM.

`N#CN=S(=O)(CF)c1ccc(Oc2cc(F)cc(C#N)c2)c2c1[C@H](O)CC2` (stereo partly drawn) [Compound 283, N—(((R)-7-(3-cyano-5-fluorophenoxy)-3-hydroxy-2,3-dihydro-1H-inden-4-yl)(fluoromethyl)(oxo)-λ^6-sulfanylidene)cyanamide] had a half-maximal inhibitory concentration (IC50) of 1.4 µM.

As to `CS(=O)(=O)N=S(=O)(CF)c1ccc(Oc2cc(F)cc(C#N)c2)c2c1[C@H](O)C(F)(F)C2` (stereo partly drawn) [Compound 284, N—(((S)-7-(3-cyano-5-fluorophenoxy)-2,2-difluoro-3-hydroxy-2,3-dihydro-1H-inden-4-yl)(fluoromethyl)(oxo)-λ^6-sulfanylidene)methanesulfonamide], the 50% inhibitory concentration (IC50) was 5.6 µM.

`N#Cc1cc(F)cc(Oc2ccc(S(=O)(=O)C(F)(F)F)c3c2CC(F)(F)[C@H]3NCCO)c1` [Compound 291, 3-[(1S)-2,2-difluoro-1-(2-hydroxyethylamino)-7-(trifluoromethylsulfonyl)indan-4-yl]oxy-5-fluoro-benzonitrile] had an IC50 of 4.9 µM.

In the case of `CS(=O)(=O)c1ccc(Oc2cc(F)cc(C#N)c2)c2c1[C@H](O)C(F)(F)[C@H]2F` [Compound 293, 3-fluoro-5-[(1S,3S)-2,2,3-trifluoro-1-hydroxy-7-methylsulfonyl-indan-4-yl]oxy-benzonitrile], the IC50 is 0.72 µM.

The compound `CS(=O)(=O)c1ccc(Oc2cc(F)cc(C#N)c2)c2c1[C@H](O)C[C@@H]2F` [Compound 295, 3-fluoro-5-[(1R,3S)-3-fluoro-1-hydroxy-7-methylsulfonyl-indan-4-yl]oxy-benzonitrile] gave a half-maximal inhibitory concentration (IC50) of 0.23 µM.

The compound `CS(=O)(=O)c1ccc(Oc2cc(F)cc(C#N)c2)c2c1[C@H](O)[C@H](F)[C@@H]2O` [Compound 296, 3-fluoro-5-[(1S,2R,3R)-2-fluoro-1,3-dihydroxy-7-methylsulfonyl-indan-4-yl]oxy-benzonitrile] returned an IC50 of 1.3 µM.

With `N#CN=S(=O)(c1ccc(Oc2cc(F)cc(C#N)c2)c2c1[C@H](O)[C@H](F)C2)C(F)F` (stereo partly drawn) [Compound 297, N-(((2R,3S)-7-(3-cyano-5-fluorophenoxy)-2-fluoro-3-hydroxy-2,3-dihydro-1H-inden-4-yl)(difluoromethyl)(oxo)-λ^6-sulfanylidene)cyanamide], the IC50 came to 12.4 µM.

Consider `C[C@]1(F)Cc2c(Oc3cc(F)cc(C#N)c3)ccc(S(C)(=O)=O)c2[C@@H]1O` [Compound 298, 3-fluoro-5-(((1S,2S)-2-fluoro-1-hydroxy-2-methyl-7-(methylsulfonyl)-2,3-dihydro-1H-inden-4-yl)oxy)benzonitrile], for which the concentration for half-maximal inhibition (IC50) was determined as 16.1 µM.

`N#CN=S(=O)(c1ccc(Oc2cc(F)cc(C#N)c2)c2c1[C@H](O)[C@H](F)C2)C(F)F` (stereo partly drawn) [Compound 299, N-(((2R,3S)-7-(3-cyano-5-fluorophenoxy)-2-fluoro-3-hydroxy-2,3-dihydro-1H-inden-4-yl)(difluoromethyl)(oxo)-λ^6-sulfanylidene)cyanamide] came in with a half-maximal inhibitory concentration (IC50) of 16.1 µM.

In turn, `C[C@@]1(F)Cc2c(Oc3cc(F)cc(C#N)c3)ccc(S(C)(=O)=O)c2[C@@H]1O` [Compound 300] showed an IC50 of 2.03 µM.

On to `C[C@@H]1Cc2c(Oc3cc(F)cc(C#N)c3)ccc(S(C)(=O)=O)c2[C@@H]1O` [Compound 301, 3-fluoro-5-(((1R,2R)-1-hydroxy-2-methyl-7-(methylsulfonyl)-2,3-dihydro-1H-inden-4-yl)oxy)benzonitrile], for which the IC50 amounted to 1.9 µM.

Compound `CS(=O)(=O)c1ccc(Oc2cc(F)cc(C#N)c2)c2c1[C@H](O)C(F)(F)[C@H]2O` [Compound 311, 3-[(1S,3S)-2,2-difluoro-1,3-dihydroxy-7-methylsulfonyl-indan-4-yl]oxy-5-fluoro-benzonitrile] displayed an IC50 of 8.7 µM.

Compound `CS(=O)(=O)c1ccc(Oc2cc(F)cc(C#N)c2)c2c1[C@H](O)C(F)(F)[C@@H]2O` [Compound 312, 3-[(1S,3R)-2,2-difluoro-1,3-dihydroxy-7-methylsulfonyl-indan-4-yl]oxy-5-fluoro-benzonitrile] came in with an IC50 of 0.15 µM.

Compound `CS(=O)(=O)c1ccc(Oc2cncc(C#N)c2)c2c1[C@H](O)[C@H](F)C2` [Compound 313, 5-(((1S,2R)-2-fluoro-1-hydroxy-7-(methylsulfonyl)-2,3-dihydro-1H-inden-4-yl)oxy)nicotinonitrile] returned an IC50 of 1.8 µM.

`CS(=O)(=NC#N)c1ccc(Oc2cc(F)cc(C#N)c2)c2c1[C@H](O)C(F)(F)[C@H]2F` (stereo partly drawn) [Compound 318, [[(1S,3S)-7-(3-cyano-5-fluoro-phenoxy)-1,2,2-trifluoro-3-hydroxy-indan-4-yl]-methyl-oxo-λ^6-sulfanylidene]cyanamide] displayed a concentration for half-maximal inhibition (IC50) of 2.38 µM.

Compound `CS(=O)(=O)c1ccc(Oc2cncc(Br)c2)c2c1C(=O)C(F)(F)C2` [Compound 323, 4-((5-Bromopyridin-3-yl)oxy)-2,2-difluoro-7-(methylsulfonyl)-2,3-dihydro-1H-inden-1-one] returned an IC50 of 5.25 µM.

The compound `CS(=O)(=O)c1ccc(Oc2cncc(Br)c2)c2c1[C@H](O)C(F)(F)C2` [Compound 324, (S)-4-((5-Bromopyridin-3-yl)oxy)-2,2-difluoro-7-(methylsulfonyl)-2,3-dihydro-1H-inden-1-ol] yielded an IC50 of 0.054 µM.

Compound `CS(=O)(=O)c1ccc(Oc2cncc(C#N)c2)c2c1[C@H](O)C(F)(F)C2` [Compound 325, (S)-5-((2,2-Difluoro-1-hydroxy-7-(methylsulfonyl)-2,3-dihydro-1H-inden-4-yl)oxy)nicotinonitrile] yielded a concentration for half-maximal inhibition (IC50) of 0.18 µM.

As to `CS(=O)(=O)c1ccc(Oc2cncc(Br)c2)c2c1[C@H](O)[C@H](F)C2` [Compound 326, (1S,2R)-4-((5-Bromopyridin-3-yl)oxy)-2-fluoro-7-(methylsulfonyl)-2,3-dihydro-1H-inden-1-ol], the IC50 stood at 1.28 µM.

In turn, `CS(=O)(=O)c1ccc(Oc2ccc(F)c(C#N)c2)c2c1[C@H](O)C(F)(F)[C@@H]2F` [Compound 327, 2-Fluoro-5-(((1S,3R)-2,2,3-trifluoro-1-hydroxy-7-(methylsulfonyl)-2,3-dihydro-1H-inden-4-yl)oxy)benzonitrile] had a half-maximal inhibitory concentration (IC50) of 0.028 µM.

As to `CS(=O)(=O)c1ccc(Oc2cncc(Br)c2)c2c1[C@H](O)[C@H](F)[C@@H]2F` [Compound 328, (1S,2S,3R)-4-((5-Bromopyridin-3-yl)oxy)-2,3-difluoro-7-(methylsulfonyl)-2,3-dihydro-1H-inden-1-ol], the IC50 stood at 0.032 µM.

Consider `CS(=O)(=O)c1ccc(Oc2cncc(F)c2)c2c1[C@H](O)C(F)(F)[C@@H]2F` [Compound 329, (1S,3R)-2,2,3-trifluoro-4-((5-fluoropyridin-3-yl)oxy)-7-(methylsulfonyl)-2,3-dihydro-1H-inden-1-ol], for which the IC50 is < 0.005 µM.
